In ChEMBL document CHEMBL4330144, “A mitochondria-targeted organic arsenical accelerates mitochondrial metabolic disorder and function injury” (Bioorg Med Chem, 2019):
The source made the active and inactive calls. No cut-off for these calls is given here.

What was measured:
Rattus norvegicus [1] = species: Rattus norvegicus; experiment: Induction of mitochondrial membrane potential loss in isolated Wistar rat mitochondria assessed as activity recovery phase rate constant at 100 uM using pyruvate as substrate up to 3 hrs by microcalorimetry; type: functional
NB-4 [2] = experiment: Induction of apoptosis in human NB4 cells assessed as necrotic cells after 24 hrs in presence of Nec-1 by Annexin V-FITC/propidium iodide staining based flow cytometry (reference value: 0.1%); type: functional
Rattus norvegicus [3] = species: Rattus norvegicus; experiment: Induction of mitochondrial membrane potential loss in isolated Wistar rat mitochondria assessed as maximum power output at 100 uM using pyruvate as substrate up to 3 hrs by microcalorimetry; type: functional
NB-4 [4] = experiment: Induction of apoptosis in human NB4 cells assessed as early apoptotic cells after 24 hrs by Annexin V-FITC/propidium iodide staining based flow cytometry (reference value: 5%); type: functional
NB-4 [5] = experiment: Induction of apoptosis in human NB4 cells assessed as DNA fragmentation at 0.6 to 1.2 uM after 24 hrs by Hoechst 33342/propidium iodide staining based confocal microscopic method; type: functional, cell-based
Rattus norvegicus [6] = species: Rattus norvegicus; experiment: Induction of mitochondrial membrane potential loss in isolated Wistar rat mitochondria assessed as activity recovery phase rate constant at 25 uM using pyruvate as substrate up to 3 hrs by microcalorimetry (reference value: 5.15 to 7.33 10^-3/min); type: functional
NB-4 [7] = experiment: Induction of mitochondrial membrane potential loss in human NB4 cells assessed as decrease in intracellular ATP level at 0.6 to 1.2 uM after 24 hrs; type: functional, cell-based
NB-4 [8] = experiment: Induction of apoptosis in human NB4 cells assessed as decrease in cell size at 0.6 to 1.2 uM after 24 hrs by Hoechst 33342/propidium iodide staining based confocal microscopic method; type: functional
Rattus norvegicus [9] = species: Rattus norvegicus; experiment: Induction of mitochondrial membrane potential loss in isolated Wistar rat mitochondria assessed as total heat output at 25 uM using pyruvate as substrate up to 3 hrs by microcalorimetry (reference value: 10.32 to 10.36 J); type: functional
NB-4 [10] = experiment: Induction of apoptosis in human NB4 cells assessed as late apoptotic cells after 24 hrs by Annexin V-FITC/propidium iodide staining based flow cytometry (reference value: 2.9%); type: functional
HeLa [11] = experiment: Cytotoxicity against human HeLa cells after 48 hrs by MTT assay; type: functional, cell-based
Rattus norvegicus [12] = species: Rattus norvegicus; experiment: Induction of mitochondrial membrane potential loss in isolated Wistar rat mitochondria assessed as total heat output at 100 uM using pyruvate as substrate up to 3 hrs by microcalorimetry; type: functional
Rattus norvegicus [13] = species: Rattus norvegicus; experiment: Induction of inner mitochondrial membrane permeabilization in isolated Wistar rat mitochondria assessed as K+ permeabilization at 5 to 75 uM measured for 10 to 30 mins; type: functional
Rattus norvegicus [14] = species: Rattus norvegicus; experiment: Induction of mitochondrial swelling in isolated Wistar rat mitochondria at 30 uM in presence of ruthenium red; type: functional
Rattus norvegicus [15] = species: Rattus norvegicus; experiment: Induction of mitochondrial membrane permeability in isolated Wistar rat mitochondria at 50 uM for 30 mins by TEM analysis; type: functional
Rattus norvegicus [16] = species: Rattus norvegicus; experiment: Induction of mitochondrial membrane potential loss in isolated Wistar rat mitochondria assessed as maximum power output time at 50 uM using pyruvate as substrate up to 3 hrs by microcalorimetry; type: functional
Rattus norvegicus [17] = species: Rattus norvegicus; experiment: Inhibition of ETC1 in isolated Wistar rat mitochondria assessed as reduction in NADH oxidation at 6 to 24 uM preincubated for 3 mins and measured after 5 mins by DB reagent based assay
Rattus norvegicus [18] = species: Rattus norvegicus; experiment: Induction of mitochondrial membrane potential loss in isolated Wistar rat mitochondria assessed as stationary increase phase rate constant at 50 uM using pyruvate as substrate up to 3 hrs by microcalorimetry; type: functional
Rattus norvegicus [19] = species: Rattus norvegicus; experiment: Induction of mitochondrial swelling in isolated Wistar rat mitochondria at 30 uM in presence of EGTA; type: functional
Rattus norvegicus [20] = species: Rattus norvegicus; experiment: Induction of mitochondrial membrane potential loss in isolated Wistar rat mitochondria assessed as maximum power output time at 100 uM using pyruvate as substrate up to 3 hrs by microcalorimetry; type: functional
Rattus norvegicus [21] = species: Rattus norvegicus; experiment: Induction of mitochondrial membrane potential loss in isolated Wistar rat mitochondria assessed as maximum power output at 25 uM using pyruvate as substrate up to 3 hrs by microcalorimetry (reference value: 141.64 to 153.92 W); type: functional
Rattus norvegicus [22] = species: Rattus norvegicus; experiment: Inhibition of ETC2 in isolated Wistar rat mitochondria assessed as decrease in DCPIP/DB reagent reduction at 5 to 50 uM incubated for 3 to 5 mins and measured for up to 3 mins
Rattus norvegicus [23] = species: Rattus norvegicus; experiment: Inhibition of ETC4 in isolated Wistar rat mitochondria assessed as decrease in cyochrome-c oxidation at 5 to 15 uM incubated for 3 to 5 mins and measured for up to 3 mins
NB-4 [24] = experiment: Induction of mitochondrial membrane potential loss in human NB4 cells at 0.6 uM after 1 hr by JC1 staining based flow cytometry (reference value: 27.7%); type: functional
[25] = biological target: T1, Dihydrolipoyllysine-residue acetyltransferase component of pyruvate dehydrogenase complex, mitochondrial (Homo sapiens) (UniProt P10515); experiment: Inhibition of PDHC-E2 activity in human NB4 cells up to 2.4 uM after 3 hrs; type: cell-based
T1 sequence (whole entry): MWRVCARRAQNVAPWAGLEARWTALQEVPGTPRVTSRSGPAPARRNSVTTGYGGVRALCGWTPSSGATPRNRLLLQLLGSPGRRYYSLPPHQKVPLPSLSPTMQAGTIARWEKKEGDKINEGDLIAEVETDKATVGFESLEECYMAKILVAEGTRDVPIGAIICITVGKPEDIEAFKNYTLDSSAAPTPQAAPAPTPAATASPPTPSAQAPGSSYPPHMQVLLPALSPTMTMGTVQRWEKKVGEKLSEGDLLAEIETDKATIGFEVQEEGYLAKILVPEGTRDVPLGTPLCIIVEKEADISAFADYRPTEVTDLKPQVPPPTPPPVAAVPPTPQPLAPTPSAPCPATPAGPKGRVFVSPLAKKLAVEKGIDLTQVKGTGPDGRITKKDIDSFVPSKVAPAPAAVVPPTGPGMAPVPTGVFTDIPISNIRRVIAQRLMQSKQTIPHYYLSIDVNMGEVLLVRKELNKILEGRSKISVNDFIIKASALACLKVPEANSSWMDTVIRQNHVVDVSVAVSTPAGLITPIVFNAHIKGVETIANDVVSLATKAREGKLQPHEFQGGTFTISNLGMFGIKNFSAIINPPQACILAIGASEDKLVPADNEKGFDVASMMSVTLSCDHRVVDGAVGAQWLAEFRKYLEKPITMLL

Rattus norvegicus [26] = species: Rattus norvegicus; experiment: Induction of mitochondrial membrane potential loss in isolated Wistar rat mitochondria assessed as decline phase rate constant at 100 uM using pyruvate as substrate up to 3 hrs by microcalorimetry; type: functional
NB-4 [27] = experiment: Cytotoxicity against human NB4 cells assessed as reduction in cell viability at 1.2 uM after 24 hrs in presence of PDHC-E2 co-enzyme LA by trypan blue assay; type: functional, cell-based
HEK293 = experiment: Cytotoxicity against HEK293 cells after 48 hrs by MTT assay; type: cell-based; details: Homo sapiens, HEK293, 48 h
HL-60 = experiment: Cytotoxicity against human HL60 cells after 24 hrs by MTT assay; type: functional, cell-based; details: HL-60, 24 h
NB-4 [28] = experiment: Induction of apoptosis in human NB4 cells assessed as live cells after 24 hrs in presence of Z-VAD-fmk by Annexin V-FITC/propidium iodide staining based flow cytometry (reference value: 92%); type: functional
HeLa [29] = experiment: Cytotoxicity against human HeLa cells after 24 hrs by MTT assay; type: functional, cell-based

O=C(CC[P+](c1ccccc1)(c1ccccc1)c1ccccc1)Nc1ccc([As]2SCCCS2)cc1.[Cl-]
K (Rattus norvegicus [1]): 3.88 ×10⁻³ /min
Activity (NB-4 [2]): 1%
Activity (Rattus norvegicus [3]): 112 W
Activity (NB-4 [4]): 13.1%
Activity (NB-4 [5]): Active
K (Rattus norvegicus [6]): 3.82 ×10⁻³ /min
Activity (NB-4 [7]): Active
Activity (NB-4 [8]): Active
Activity (Rattus norvegicus [9]): 10.8 J
Activity (NB-4 [10]): 16.2%
IC50 (HeLa [11]): 3.91 µM
Activity (Rattus norvegicus [12]): 11.2 J
Activity (Rattus norvegicus [13]): Active
Activity (Rattus norvegicus [14]): inactive
Activity (Rattus norvegicus [15]): Active
TIME (Rattus norvegicus [16]): 47.6 h
inhibition (Rattus norvegicus [17]): Active
K (Rattus norvegicus [18]): 0.46 ×10⁻³ /min
Activity (Rattus norvegicus [19]): inactive
TIME (Rattus norvegicus [20]): 51.8 h
Activity (Rattus norvegicus [21]): 152 W
inhibition (Rattus norvegicus [22]): inactive
inhibition (Rattus norvegicus [23]): Active
Activity (NB-4 [24]): 40.9%
inhibition [25]: Active
K (Rattus norvegicus [26]): -9.13 ×10⁻³ /min
Activity (NB-4 [27]): inactive
IC50 (HEK293): 2.08 µM
IC50 (HL-60): 3.58 µM
Activity (NB-4 [28]): 81.9%
IC50 (HeLa [29]): 9.05 µM
